Test results taken from patent US4923697A, “Antioxidant compositions and methods” (Bar-Ilan University, priority 1986, dated 1990).

System: skin of adult mice
Test: TBA test of peroxide level in skin of adult shaved mice
Assay type: in vivo, mouse
Conditions: 0.1% in Oil of Olay
Text: Samples of creams and appropriate controls were applied to mice or rat skin for a fixed period. The application was done once a day. Experiments were terminated by killing the animal, peeling the skin and freezing it in liquid nitrogen. Samples of the frozen skin were homogenized in 0.2.M phosphate buffer, pH 6.5. After centrifugation, the supernatant was collected and analyzed for the peroxide value using the TBA (thiobarbituric acid) test as described by Sinnhuber et. al, Food Res. 23: 620 (1958).
In these experiments adult mice (2 months old) were treated as described in Example 2. The grown mice were shaved before applying the creams to the skin. In this experiment the antioxidant was dissolved in Oil of Olay. Mice were sacrificed after 21 days.

| SMILES | reduction of the level of peroxides in the skin |
| --- | --- |
| COc1ccc(O)c(C(C)(C)C)c1 [BHA, butylated hydroxy anisole] | no reduction of the level of peroxides was observed |
| Cc1c(C)c2c(c(C)c1O)CCC(C)(CCCC(C)CCCC(C)CCCC(C)C)O2 (stereo not drawn) [alpha tocopherol, alpha-tocopherol] | no reduction of the level of peroxides was observed |
| Cc1cc(C(C)(C)C)c(O)c(C(C)(C)C)c1 [BHT, butylated hydroxy toluene] | no reduction of the level of peroxides was observed |
